These results are taken from ChEMBL document CHEMBL1127974, “Design, synthesis, and activity of conformationally-constrained macrocyclic peptide-based inhibitors of HIV protease” (Bioorg Med Chem Lett, 1994).

The target in assay [1] is T1, Human immunodeficiency virus type 1 protease (Human immunodeficiency virus 1, UniProt Q72874). The experiment in a line: In vitro inhibition HIV-1 IIIB protease.
For assay [2], the system named is MT2. Description: Effective concentration against HIV infected MT-2 cell line. The assay is classed as functional, cell-based. The following applies: Homo sapiens.
The target in assay [3] is T1, Human immunodeficiency virus type 1 protease. The experiment in a line: In vitro inhibitory activity of compound against HIV protease from BRU (IIIB) strain of HIV- 1 virus was determined.

For the molecule `CC(C)(C)NC(=O)[C@@H]1C[C@@H]2CCCC[C@@H]2CN1C[C@@H](O)[C@@H]1Cc2ccc(cc2)OCCOc2cc3ccccc3cc2C(=O)N[C@@H](CC(N)=O)C(=O)N1`, half-maximal inhibition in assay [1] (IC50) was put at 13 nM. This molecule also had an EC50 in assay [2] of 18 nM.

In assay [1], `CC(C)[C@@H]1NC(=O)CCCCCCOc2ccc(cc2)C[C@@H]([C@H](O)CN2CC3CCCCC3C[C@H]2C(=O)NC(C)(C)C)NC1=O` (stereo partly drawn) yielded an IC50 of 1 nM. The 50% effective concentration (EC50) in assay [2] amounted to 4 nM.

Take `CC(C)(C)NC(=O)[C@@H]1CCCN1C[C@@H](O)[C@@H]1Cc2ccc(cc2)OCCOc2cc3ccccc3cc2C(=O)N[C@@H](CC(N)=O)C(=O)N1`: the IC50 in assay [1] was 450 nM. This counts as sub-micromolar.

Regarding `CC(C)(C)NC(=O)[C@@H]1C[C@@H]2CCCC[C@@H]2CN1C[C@@H](O)[C@@H]1Cc2ccc(cc2)OCCCOc2cc3ccccc3cc2C(=O)N[C@@H](CC(N)=O)C(=O)N1`, the IC50 in assay [1] stood at 10 nM. Moreover, in assay [2], the EC50 stood at 14 nM.

In the case of `CC(=O)N[C@H](C(=O)N[C@@H](Cc1ccccc1)[C@H](O)CN1CC2CCCCC2C[C@H]1C(=O)NC(C)(C)C)C(C)C` (stereo partly drawn), it took 3 nM to reach half-maximal inhibition in assay [1] (IC50). The molecule further had an EC50 in assay [2] of 29 nM.

As to `CCCCCCC(=O)N[C@H](C(=O)N[C@@H](Cc1ccccc1)[C@H](O)CN1CC2CCCCC2C[C@H]1C(=O)NC(C)(C)C)C(C)C` (stereo partly drawn), half-maximal inhibition in assay [1] (IC50) required 6 nM. The molecule also displayed an EC50 in assay [2] of 378 nM.

In assay [1], `CC(C)[C@H](NC(=O)c1ccc2ccccc2c1)C(=O)N[C@@H](Cc1ccccc1)[C@H](O)CN1CC2CCCCC2C[C@H]1C(=O)NC(C)(C)C` (stereo partly drawn) came in with a 50% inhibitory concentration (IC50) of 0.9 nM. Moreover, the EC50 in assay [2] came to 8 nM.

`CC(C)[C@@H]1NC(=O)c2cc3ccccc3cc2OCCCOc2ccc(cc2)C[C@@H]([C@H](O)CN2CC3CCCCC3C[C@H]2C(=O)NC(C)(C)C)NC1=O` (stereo partly drawn) came in with a concentration for half-maximal inhibition (IC50) in assay [1] of 5.5 nM. In addition, in assay [2], the concentration for a half-maximal effect (EC50) was 17 nM.

In turn, `CC(C)[C@@H]1NC(=O)/C=C\CCCCCOc2ccc(cc2)C[C@@H]([C@H](O)CN2CC3CCCCC3C[C@H]2C(=O)NC(C)(C)C)NC1=O` (stereo partly drawn) had an IC50 in assay [1] of 25 nM. The molecule further had a 50% effective concentration (EC50) in assay [2] of 216 nM.

Regarding `CC(C)(C)NC(=O)[C@@H]1C[C@@H]2CCCC[C@@H]2CN1C[C@@H](O)[C@@H]1Cc2ccc(cc2)OCCCCOc2cc3ccccc3cc2C(=O)N[C@@H](CC(N)=O)C(=O)N1`, inhibition in assay [1] was half-maximal at 88 nM (IC50). In addition, the EC50 in assay [2] is 315 nM.

`CC(C)[C@@H]1NC(=O)/C=C\CCCOc2ccc(cc2)C[C@@H]([C@H](O)CN2CC3CCCCC3C[C@H]2C(=O)NC(C)(C)C)NC1=O` (stereo partly drawn) gave an IC50 in assay [1] of 7.3 nM. This molecule had an EC50 in assay [2] of 36 nM.

`CC(C)(C)NC(=O)[C@@H]1CCCN1C[C@H](O)[C@@H]1Cc2ccc(cc2)OCCCOc2cc3ccccc3cc2C(=O)N[C@@H](CC(N)=O)C(=O)N1`: the IC50 in assay [1] amounted to 90000 nM.

The molecule `CC(C)(C)NC(=O)[C@@H]1CCCN1C[C@@H](O)[C@@H]1Cc2ccc(cc2)OCCCOc2cc3ccccc3cc2C(=O)N[C@@H](CC(N)=O)C(=O)N1` yielded an IC50 in assay [1] of 400 nM. This IC50 is about 220-fold lower than that of the molecule before.

`CC(C)[C@@H]1NC(=O)/C=C\CCCCOc2ccc(cc2)C[C@@H]([C@H](O)CN2CC3CCCCC3C[C@H]2C(=O)NC(C)(C)C)NC1=O` (stereo partly drawn) displayed an IC50 in assay [3] of 9 nM. Moreover, in assay [2], the EC50 is 31 nM.

`CC(C)[C@@H]1NC(=O)CCCCCCCOc2ccc(cc2)C[C@@H]([C@H](O)CN2CC3CCCCC3C[C@H]2C(=O)NC(C)(C)C)NC1=O` (stereo partly drawn) yielded an IC50 in assay [1] of 3.4 nM. The molecule also gave a 50% effective concentration (EC50) in assay [2] of 26 nM.

In assay [1], `CC(C)[C@@H]1NC(=O)CCCCCOc2ccc(cc2)C[C@@H]([C@H](O)CN2CC3CCCCC3C[C@H]2C(=O)NC(C)(C)C)NC1=O` (stereo partly drawn) gave an IC50 of 1.5 nM. Moreover, the concentration giving a half-maximal response (EC50) in assay [2] stood at 8 nM.

With `CC(C)(C)NC(=O)[C@@H]1CCCN1C[C@@H](O)[C@@H]1Cc2ccc(cc2)OCCCCOc2cc3ccccc3cc2C(=O)N[C@@H](CC(N)=O)C(=O)N1`, the IC50 in assay [1] came to 900 nM.

In turn, `CC(C)[C@@H]1NC(=O)c2ccccc2OCCCOc2ccc(cc2)C[C@@H]([C@H](O)CN2CC3CCCCC3C[C@H]2C(=O)NC(C)(C)C)NC1=O` (stereo partly drawn) returned an IC50 in assay [1] of 8 nM. In assay [2], this molecule yielded an EC50 of 20 nM.

Consider `CC(C)(C)NC(=O)[C@@H]1C[C@@H]2CCCC[C@@H]2CN1C[C@@H](O)[C@H](Cc1ccccc1)NC(=O)[C@H](CC(N)=O)NC(=O)c1ccc2ccccc2n1`, for which the EC50 in assay [2] turned out to be 5 nM.

As a reminder, the IC50 is the concentration that gives 50% inhibition. Broadly, the EC50 is the midpoint of the concentration-response curve. A higher EC50 goes with a less potent agent.
